Earlier results, collected in US20070043030A1, “Pharmaceutical compositions for treating premature ejaculation by pulmonary inhalation” (Vectura Limited, priority 2003, published 2007).

What was measured:
rapid ejaculation = conditions: daily oral doses of 25-50 mg
[1] = tested on: male patients with primary PE; conditions: oral, 3 to 5 hours before planned intercourse, 4-week treatment period
[2] = oral formulation used for antidepressive indications
ejaculation = conditions: oral administration

Row | SMILES | efficacy in primary PE [1] | delay in ejaculation (ejaculation) | other results
1 | CN(C)CCCN1c2ccccc2CCc2ccc(Cl)cc21 [clomipramine, 3-chloro-5-[3-(dimethylamino)-propyl]-10,11-dihydro-5H-dibenz[b,f]azepine] | comparable efficacy | – | effect on ejaculatory latency (rapid ejaculation): effective in significantly lengthening ejaculatory latencies; frequency of frequently reported side effects (dry mouth, sweating, constipation, blurred vision, nausea, drowsiness, headache, dizziness) [2]: > 10%; time of peak plasma levels after dosage (oral administration): two
2 | CNCCCN1c2ccccc2CCc2ccc(Cl)cc21 [desmethylclomipramine] | – | – | plasma half-life (oral dose (clomipramine: single oral dose)): around 36 hours
3 | CNCCC(Oc1ccc(C(F)(F)F)cc1)c1ccccc1 (centres unmarked) [fluoxetine] | – | effective in producing a delay in ejaculation | –
4 | Fc1ccc([C@@H]2CCNC[C@H]2COc2ccc3c(c2)OCO3)cc1 [paroxetine] | comparable efficacy | effective in producing a delay in ejaculation | –
5 | CN[C@H]1CC[C@@H](c2ccc(Cl)c(Cl)c2)c2ccccc21 [sertraline] | comparable efficacy | effective in producing a delay in ejaculation | –
6 | CCCc1nn(C)c2c(=O)[nH]c(-c3cc(S(=O)(=O)N4CCN(C)CC4)ccc3OCC)nc12 [sildenafil] | optimal efficacy | – | –
